EC50, IC50 and AC50 data for two compounds are collected here from ChEMBL document CHEMBL1201862, “PubChem BioAssay data set” (2004).

The target in assay [1] is T1, Heat shock factor protein 1 (Mus musculus, UniProt P38532).
T1 sequence (P38532 whole entry): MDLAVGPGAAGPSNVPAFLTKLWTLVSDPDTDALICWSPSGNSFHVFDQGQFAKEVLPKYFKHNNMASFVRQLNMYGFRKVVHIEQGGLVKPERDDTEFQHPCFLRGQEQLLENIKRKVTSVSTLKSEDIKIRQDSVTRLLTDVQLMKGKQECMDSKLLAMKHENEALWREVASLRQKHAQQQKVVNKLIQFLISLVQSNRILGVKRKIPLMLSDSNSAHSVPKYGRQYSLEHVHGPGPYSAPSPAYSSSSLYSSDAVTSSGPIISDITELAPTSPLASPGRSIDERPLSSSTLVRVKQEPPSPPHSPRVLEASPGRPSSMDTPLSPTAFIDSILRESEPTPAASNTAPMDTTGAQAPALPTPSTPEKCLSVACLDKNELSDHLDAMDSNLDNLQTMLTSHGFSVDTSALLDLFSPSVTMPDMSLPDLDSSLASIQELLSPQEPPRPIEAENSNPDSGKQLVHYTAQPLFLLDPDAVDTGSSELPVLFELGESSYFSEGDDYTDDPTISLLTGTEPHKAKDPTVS
The assay is described as follows: decrease of HSF1-responsive luciferase luminescence – cell-based, NIH3T3, dose retest, confirmation (AID 2382).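 Further: NIH3T3 fibroblasts with HSF1-driven luciferase reporter stressed by proteasome inhibitor MG132; luminescence from HSF1-driven luciferase expression after 8 hours of MG132 stress.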 It is filed as functional.

Assay [2] deals with T2, Zinc finger protein mex-5 (Caenorhabditis elegans, UniProt Q9XUB2).
T2 sequence (Q9XUB2 whole entry): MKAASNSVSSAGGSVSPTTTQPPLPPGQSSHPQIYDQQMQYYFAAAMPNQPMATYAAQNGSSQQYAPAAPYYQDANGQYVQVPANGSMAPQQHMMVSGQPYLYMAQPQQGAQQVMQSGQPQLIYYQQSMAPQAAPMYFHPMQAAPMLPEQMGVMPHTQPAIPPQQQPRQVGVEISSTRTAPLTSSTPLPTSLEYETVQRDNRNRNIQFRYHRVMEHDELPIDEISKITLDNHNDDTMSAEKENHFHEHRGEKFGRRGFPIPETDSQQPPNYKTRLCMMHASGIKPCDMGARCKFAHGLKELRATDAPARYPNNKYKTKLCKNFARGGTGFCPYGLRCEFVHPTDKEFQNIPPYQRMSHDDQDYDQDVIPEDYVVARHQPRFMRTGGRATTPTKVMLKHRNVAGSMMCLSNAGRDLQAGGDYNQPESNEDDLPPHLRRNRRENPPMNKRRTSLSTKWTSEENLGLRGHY
The assay is described as follows: potency of MEX-5 RNA-binding blockers – biochemical, C. elegans, fluorescence polarization, dose response (AID 1960). Background: In fluorescence polarisation assays a small probe gives low polarisation when free and higher when bound to something large.

Assay [3] in a line: fluconazole-exposed Candida albicans growth modulators – fluorescence, retest, confirmation (AID 2467). It is filed as functional, cell-based.
The target of assay [4] is T3, RNA-binding protein pos-1 (Caenorhabditis elegans, UniProt G5EF15).
T3 sequence (G5EF15 whole entry): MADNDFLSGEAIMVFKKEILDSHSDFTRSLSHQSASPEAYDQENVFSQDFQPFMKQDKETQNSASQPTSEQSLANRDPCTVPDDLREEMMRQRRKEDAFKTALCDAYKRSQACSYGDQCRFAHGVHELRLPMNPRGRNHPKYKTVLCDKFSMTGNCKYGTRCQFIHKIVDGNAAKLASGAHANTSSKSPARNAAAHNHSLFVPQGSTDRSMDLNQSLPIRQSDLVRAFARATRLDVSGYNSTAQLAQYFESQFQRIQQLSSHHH
The assay is described as follows: disruptors of C. elegans POS-1 RNA interaction – biochemical, fluorescence polarization, dose response (AID 1964).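 Further: purified POS-1 fused to maltose binding protein made in E. coli; potency of compounds blocking POS-1 binding to fluorescent RNA.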

Assay [5] is described as follows: Counterscreen for AddAB inhibitors: absorbance-based bacterial cell-based high throughput dose response assay for inhibitors of bacterial viability. [Related pubchem assays (depositor defined):AID435030, AID449728, AID449731, AID488942, AID488955, AID488956]. It is filed as functional. On the technique in general: Counterscreens check selectivity or assay interference.

The target of another assay is Exodeoxyribonuclease V (Escherichia coli (strain K12), UniProt P04993+P07648+P08394). Kind of assay: RecBCD inhibition via phage-restricted bacterial growth – absorbance, V66 E. coli, mutant T4 phage, counter-screen for AddAB inhibitor project, dose response (AID 492957). It is filed as functional, cell-based, Escherichia coli str. K-12 substr. MG1655.
The nature of assay [6]: luciferase reporter signal suppression in cells – H4 neuroglioma cells, luminescence, dose response (AID 1990). Type of assay: functional, cell-based.
The next assay concerns INS1. Kind of assay: INS-1E survival protection against cytokine death – cell-based, luminescence, retest, dose response (AID 449756).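 Further: cell death triggered by IL-1 beta plus TNF-alpha plus IFN-gamma mixture; protective hits raise ATP signal compared with cytokine alone wells.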 Type of assay: functional. The conditions noted are these: Rattus norvegicus.
The nature of assay [7]: Luminescence Cell-Based Dose Response HTS to Identify Inhibitors of 5'UTR Stem-Loop Driven Prion Protein mRNA Translation in H4 Neuroglioblastoma Cells. [Related pubchem assays: 1827 (Project Summary), 1813 (Primary HTS)]. Type of assay: functional.
Assay [8] in a line: NIH-3T3 fibroblast cytotoxicity, dose response, cytotoxicity control, cell-based, fluorescence, Alamar Blue, secondary assay (AID 2327).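 Further: NIH-3T3 mouse fibroblasts cultured with fluconazole at 8 µg/mL.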 It is filed as functional.
The nature of assay [9]: alpha-synuclein stem-loop luciferase translation blockers – H4 neuroglioma cells, luminescence, confirmation (AID 1988). Type of assay: functional, cell-based.
The target of assay [10] is Intestinal-type alkaline phosphatase (Homo sapiens, UniProt P09923). The assay is described as follows: inhibition of human intestinal alkaline phosphatase – biochemical, dose response (AID 488876). It is filed as functional.
Assay [11] deals with Intestinal-type alkaline phosphatase (Mus musculus, UniProt P24822). Kind of assay: PubChem AID 488785. It is filed as functional.
For assay [12], the target named is T4, Alkaline phosphatase, tissue-nonspecific isozyme (Homo sapiens, UniProt P05186).
T4 sequence (P05186 whole entry): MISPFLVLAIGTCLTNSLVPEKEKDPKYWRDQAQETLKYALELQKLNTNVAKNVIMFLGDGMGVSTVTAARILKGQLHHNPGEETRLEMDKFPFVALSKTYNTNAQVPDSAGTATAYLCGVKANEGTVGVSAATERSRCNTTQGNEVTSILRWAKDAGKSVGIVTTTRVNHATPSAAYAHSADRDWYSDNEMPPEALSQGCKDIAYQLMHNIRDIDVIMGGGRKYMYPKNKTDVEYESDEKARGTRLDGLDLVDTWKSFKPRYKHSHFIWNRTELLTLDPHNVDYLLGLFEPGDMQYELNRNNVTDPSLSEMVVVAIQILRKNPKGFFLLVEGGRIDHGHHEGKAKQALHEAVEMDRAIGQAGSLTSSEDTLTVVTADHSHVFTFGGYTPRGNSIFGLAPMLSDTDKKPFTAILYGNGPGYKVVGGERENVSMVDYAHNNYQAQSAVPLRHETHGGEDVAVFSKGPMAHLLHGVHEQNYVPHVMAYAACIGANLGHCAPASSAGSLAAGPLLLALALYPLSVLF
Kind of assay: TNAP enzyme inhibition by screening hits, dose response, selectivity assay for mouse IAP inhibitor project, biochemical, human TNAP, uHTS hits (AID 488906). It is filed as functional.

Each structure is given as a SMILES string. Activity calls are given as the source filed them. For most assays here, no stated cut-off is given here; in the data, actives have a measured EC50 and inactives only a lower limit. Some results are limits rather than exact numbers.

Chain of Intestinal-type alkaline phosphatase (Mus musculus, UniProt P24822) (P24822 whole entry): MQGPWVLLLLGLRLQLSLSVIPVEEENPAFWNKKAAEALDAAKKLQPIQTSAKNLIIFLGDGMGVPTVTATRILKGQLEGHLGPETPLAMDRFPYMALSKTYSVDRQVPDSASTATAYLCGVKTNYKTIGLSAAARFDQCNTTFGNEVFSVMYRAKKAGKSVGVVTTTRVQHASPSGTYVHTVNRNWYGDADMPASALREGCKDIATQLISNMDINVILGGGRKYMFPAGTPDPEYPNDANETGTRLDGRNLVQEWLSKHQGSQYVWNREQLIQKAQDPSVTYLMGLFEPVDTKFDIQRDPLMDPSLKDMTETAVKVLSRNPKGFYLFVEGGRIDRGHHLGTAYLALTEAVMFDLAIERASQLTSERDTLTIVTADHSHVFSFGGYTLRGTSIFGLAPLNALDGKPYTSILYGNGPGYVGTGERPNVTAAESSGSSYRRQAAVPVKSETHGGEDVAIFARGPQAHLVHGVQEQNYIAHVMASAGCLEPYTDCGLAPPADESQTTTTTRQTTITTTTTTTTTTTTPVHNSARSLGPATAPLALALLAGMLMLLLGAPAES
Chain of Exodeoxyribonuclease V (P04993 whole entry): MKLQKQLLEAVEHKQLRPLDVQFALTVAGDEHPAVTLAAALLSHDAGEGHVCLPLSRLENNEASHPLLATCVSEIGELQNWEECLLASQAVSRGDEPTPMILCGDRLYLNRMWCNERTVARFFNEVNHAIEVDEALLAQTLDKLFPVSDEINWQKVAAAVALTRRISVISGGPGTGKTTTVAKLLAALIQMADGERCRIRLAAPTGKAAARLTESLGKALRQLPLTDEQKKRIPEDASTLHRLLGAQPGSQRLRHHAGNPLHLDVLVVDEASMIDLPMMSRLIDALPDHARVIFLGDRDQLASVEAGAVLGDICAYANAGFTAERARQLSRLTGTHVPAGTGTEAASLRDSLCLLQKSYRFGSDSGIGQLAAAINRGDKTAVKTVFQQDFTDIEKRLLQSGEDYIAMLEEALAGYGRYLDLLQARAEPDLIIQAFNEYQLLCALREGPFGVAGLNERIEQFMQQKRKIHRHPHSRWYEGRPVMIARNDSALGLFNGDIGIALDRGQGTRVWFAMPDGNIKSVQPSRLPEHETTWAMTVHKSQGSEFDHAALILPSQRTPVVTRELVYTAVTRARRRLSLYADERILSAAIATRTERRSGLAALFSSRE
Chain of Exodeoxyribonuclease V (P07648 whole entry): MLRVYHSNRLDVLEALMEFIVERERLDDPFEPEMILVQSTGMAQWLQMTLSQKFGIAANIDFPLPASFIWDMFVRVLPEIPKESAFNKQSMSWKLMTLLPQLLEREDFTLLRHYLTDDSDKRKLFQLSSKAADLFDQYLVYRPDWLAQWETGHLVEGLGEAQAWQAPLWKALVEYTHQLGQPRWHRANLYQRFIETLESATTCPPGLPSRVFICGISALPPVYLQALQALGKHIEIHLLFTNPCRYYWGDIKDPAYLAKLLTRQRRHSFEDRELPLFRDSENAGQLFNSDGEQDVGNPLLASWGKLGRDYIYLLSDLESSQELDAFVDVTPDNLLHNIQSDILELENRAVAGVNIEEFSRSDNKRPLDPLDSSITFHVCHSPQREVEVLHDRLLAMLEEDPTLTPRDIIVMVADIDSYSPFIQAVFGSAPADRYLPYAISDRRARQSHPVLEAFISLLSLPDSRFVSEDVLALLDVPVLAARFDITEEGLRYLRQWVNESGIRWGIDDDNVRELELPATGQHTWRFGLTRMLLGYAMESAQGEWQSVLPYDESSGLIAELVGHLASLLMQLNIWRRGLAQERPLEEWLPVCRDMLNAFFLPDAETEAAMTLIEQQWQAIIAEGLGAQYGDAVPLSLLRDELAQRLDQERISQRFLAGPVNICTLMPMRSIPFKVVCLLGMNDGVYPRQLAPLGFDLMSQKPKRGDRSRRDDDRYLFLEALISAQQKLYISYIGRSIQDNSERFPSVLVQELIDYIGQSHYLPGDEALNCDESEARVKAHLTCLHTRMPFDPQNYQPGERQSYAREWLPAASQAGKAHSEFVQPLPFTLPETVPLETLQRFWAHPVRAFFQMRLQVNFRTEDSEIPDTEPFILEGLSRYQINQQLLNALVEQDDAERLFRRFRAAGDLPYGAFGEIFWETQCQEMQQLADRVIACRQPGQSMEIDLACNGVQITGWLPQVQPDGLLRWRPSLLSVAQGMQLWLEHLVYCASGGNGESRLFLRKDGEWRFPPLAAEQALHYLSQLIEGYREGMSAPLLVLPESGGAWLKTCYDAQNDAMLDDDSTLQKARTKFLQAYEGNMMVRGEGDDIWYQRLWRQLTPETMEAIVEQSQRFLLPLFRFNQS
Chain of Exodeoxyribonuclease V (P08394 whole entry): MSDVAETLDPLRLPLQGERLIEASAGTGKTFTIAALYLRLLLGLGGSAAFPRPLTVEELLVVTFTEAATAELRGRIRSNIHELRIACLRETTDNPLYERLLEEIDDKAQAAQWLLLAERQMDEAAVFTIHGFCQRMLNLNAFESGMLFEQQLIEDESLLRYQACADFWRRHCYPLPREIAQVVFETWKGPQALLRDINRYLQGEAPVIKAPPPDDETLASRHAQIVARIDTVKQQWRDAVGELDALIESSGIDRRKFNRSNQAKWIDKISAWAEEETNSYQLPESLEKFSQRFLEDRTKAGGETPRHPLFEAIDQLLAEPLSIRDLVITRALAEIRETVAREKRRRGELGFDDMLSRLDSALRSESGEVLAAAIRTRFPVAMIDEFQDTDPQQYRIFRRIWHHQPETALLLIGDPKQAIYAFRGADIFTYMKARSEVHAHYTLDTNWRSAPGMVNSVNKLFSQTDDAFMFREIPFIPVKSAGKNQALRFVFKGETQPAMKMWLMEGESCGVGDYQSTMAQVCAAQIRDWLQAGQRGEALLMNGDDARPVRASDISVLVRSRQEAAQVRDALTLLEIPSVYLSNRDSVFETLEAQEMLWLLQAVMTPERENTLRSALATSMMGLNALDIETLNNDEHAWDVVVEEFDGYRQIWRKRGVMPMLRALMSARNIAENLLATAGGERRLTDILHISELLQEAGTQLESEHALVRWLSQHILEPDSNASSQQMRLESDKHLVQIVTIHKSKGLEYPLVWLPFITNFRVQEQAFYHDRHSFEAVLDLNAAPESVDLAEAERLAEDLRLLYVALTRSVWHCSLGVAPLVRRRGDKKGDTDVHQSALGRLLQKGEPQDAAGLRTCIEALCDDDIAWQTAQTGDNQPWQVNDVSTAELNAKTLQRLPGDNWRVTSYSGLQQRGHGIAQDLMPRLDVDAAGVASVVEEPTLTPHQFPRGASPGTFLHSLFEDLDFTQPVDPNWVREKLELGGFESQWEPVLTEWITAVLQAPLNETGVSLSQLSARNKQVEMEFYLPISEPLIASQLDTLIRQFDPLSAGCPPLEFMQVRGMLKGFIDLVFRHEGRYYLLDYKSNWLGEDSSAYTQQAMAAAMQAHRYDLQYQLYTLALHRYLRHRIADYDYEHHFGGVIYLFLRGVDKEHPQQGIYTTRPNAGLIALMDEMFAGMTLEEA
Chain of Intestinal-type alkaline phosphatase (Homo sapiens, UniProt P09923) (P09923 whole entry): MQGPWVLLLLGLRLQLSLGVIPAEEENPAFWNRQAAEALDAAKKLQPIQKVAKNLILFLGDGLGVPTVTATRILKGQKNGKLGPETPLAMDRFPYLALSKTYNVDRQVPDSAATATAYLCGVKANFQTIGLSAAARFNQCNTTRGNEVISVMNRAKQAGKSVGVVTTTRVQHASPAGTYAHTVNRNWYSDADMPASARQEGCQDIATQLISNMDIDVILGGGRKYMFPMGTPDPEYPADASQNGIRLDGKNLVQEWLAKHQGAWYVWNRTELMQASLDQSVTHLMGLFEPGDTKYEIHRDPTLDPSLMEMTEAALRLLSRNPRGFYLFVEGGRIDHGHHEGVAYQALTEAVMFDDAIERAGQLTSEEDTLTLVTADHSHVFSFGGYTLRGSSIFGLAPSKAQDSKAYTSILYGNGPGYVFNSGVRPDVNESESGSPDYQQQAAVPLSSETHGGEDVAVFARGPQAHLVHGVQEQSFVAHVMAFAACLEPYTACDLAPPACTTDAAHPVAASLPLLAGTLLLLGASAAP

On to `CCCNC(=O)c1ccc2c(O)c(O)c(-c3cccc(Br)c3)nc2c1`, for which the EC50 (commonly the midpoint of the concentration-response curve) in [1] is > 195 µM (not active); in assay [2] it was 2.73 µM (active); in assay [3] it was 2.09 µM (active); in assay [4], 1.6 µM (active); in assay [6] it was 3.04 µM (active); in assay [7], 4.83 µM (active). For the same compound, the EC50 is 15.6 µM (active) in assay [8] and 3.4 µM (active) in assay [9]. Also, the IC50 (in assay [5]; at Exodeoxyribonuclease V) was > 119 µM (inactive) throughout. Moreover, in the assay with INS1, the AC50 (in general, the concentration giving half of the maximal activity seen) was 5.4 µM (active).
On to `NS(=O)(=O)c1cccc(NC(=O)CSc2nnc(-c3ccncc3)n2C2CC2)c1`, for which the IC50 (commonly the concentration that inhibits the measured activity by half) in assay [10] is 9.42 µM (active); in assay [11], 2.34 µM (active); in assay [12], 17.1 µM (active).
